Four compounds from PMC4045409 (Biochemical and biophysical research communications, 2011) can be followed below.

In experiment [1] the target is T1, α1D-AR + β1-syntrophin (Homo sapiens, UniProt P25100).
T1 sequence (P25100 1-572): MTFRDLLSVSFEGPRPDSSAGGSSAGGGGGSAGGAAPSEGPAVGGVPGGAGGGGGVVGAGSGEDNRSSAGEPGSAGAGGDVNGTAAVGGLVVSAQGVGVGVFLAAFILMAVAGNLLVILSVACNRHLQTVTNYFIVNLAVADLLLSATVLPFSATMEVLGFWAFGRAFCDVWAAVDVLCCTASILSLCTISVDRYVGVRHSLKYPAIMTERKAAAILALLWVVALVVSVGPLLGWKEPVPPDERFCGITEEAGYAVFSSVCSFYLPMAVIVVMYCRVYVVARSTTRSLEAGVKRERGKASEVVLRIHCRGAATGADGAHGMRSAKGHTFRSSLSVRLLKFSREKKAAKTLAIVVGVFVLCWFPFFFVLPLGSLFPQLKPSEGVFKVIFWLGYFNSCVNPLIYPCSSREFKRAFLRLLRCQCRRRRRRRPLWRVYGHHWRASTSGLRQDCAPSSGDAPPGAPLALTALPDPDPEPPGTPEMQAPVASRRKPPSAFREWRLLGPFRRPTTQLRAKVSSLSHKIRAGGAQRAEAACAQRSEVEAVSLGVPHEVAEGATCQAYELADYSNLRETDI
T1 sequence (Q99L88 2-537 partner): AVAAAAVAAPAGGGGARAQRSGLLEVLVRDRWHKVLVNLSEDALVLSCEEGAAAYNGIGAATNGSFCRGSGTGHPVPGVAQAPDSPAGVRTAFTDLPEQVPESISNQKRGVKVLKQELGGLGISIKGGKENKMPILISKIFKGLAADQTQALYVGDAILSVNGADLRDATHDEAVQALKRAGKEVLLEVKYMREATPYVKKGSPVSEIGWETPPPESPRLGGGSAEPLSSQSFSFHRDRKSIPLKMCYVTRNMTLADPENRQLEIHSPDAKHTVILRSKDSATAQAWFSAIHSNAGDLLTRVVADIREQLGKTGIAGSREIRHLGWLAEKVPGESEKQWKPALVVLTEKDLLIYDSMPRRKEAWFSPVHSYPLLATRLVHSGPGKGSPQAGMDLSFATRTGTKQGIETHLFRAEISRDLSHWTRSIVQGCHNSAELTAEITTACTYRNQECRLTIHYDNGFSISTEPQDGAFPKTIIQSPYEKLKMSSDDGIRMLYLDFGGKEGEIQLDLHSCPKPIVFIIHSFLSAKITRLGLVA
Briefly: [3H]-PI hydrolysis, HEK293 cells, agonist. It counts as cell-based.

Experiment [2] has as its target T2, α1D-AR + β2-syntrophin (Homo sapiens, UniProt P25100).
T2 sequence (P25100 1-572): T1 sequence (P25100 1-572)
T2 sequence (Q61235 1-520 partner): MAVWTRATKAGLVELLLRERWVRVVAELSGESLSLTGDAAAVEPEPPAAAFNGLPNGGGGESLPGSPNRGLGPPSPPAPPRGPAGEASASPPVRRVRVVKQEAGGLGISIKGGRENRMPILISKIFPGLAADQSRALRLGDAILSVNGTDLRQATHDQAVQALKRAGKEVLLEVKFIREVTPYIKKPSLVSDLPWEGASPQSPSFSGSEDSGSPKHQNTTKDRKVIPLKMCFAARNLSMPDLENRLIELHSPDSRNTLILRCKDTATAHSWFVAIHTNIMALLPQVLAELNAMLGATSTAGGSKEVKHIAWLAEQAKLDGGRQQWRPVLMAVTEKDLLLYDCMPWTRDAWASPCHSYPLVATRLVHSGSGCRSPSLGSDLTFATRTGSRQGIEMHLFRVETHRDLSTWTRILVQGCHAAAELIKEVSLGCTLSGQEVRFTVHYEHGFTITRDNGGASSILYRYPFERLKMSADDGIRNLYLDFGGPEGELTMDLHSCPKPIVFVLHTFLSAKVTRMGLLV
The experiment in a line: [3H]-PI hydrolysis, HEK293 cells, agonist. Type of experiment: cell-based.

Experiment [3] deals with T3, α1D-AR + α-syntrophin (Homo sapiens, UniProt P25100).
T3 sequence (P25100 1-572): T1 sequence (P25100 1-572)
T3 sequence (Q61234 1-503 partner): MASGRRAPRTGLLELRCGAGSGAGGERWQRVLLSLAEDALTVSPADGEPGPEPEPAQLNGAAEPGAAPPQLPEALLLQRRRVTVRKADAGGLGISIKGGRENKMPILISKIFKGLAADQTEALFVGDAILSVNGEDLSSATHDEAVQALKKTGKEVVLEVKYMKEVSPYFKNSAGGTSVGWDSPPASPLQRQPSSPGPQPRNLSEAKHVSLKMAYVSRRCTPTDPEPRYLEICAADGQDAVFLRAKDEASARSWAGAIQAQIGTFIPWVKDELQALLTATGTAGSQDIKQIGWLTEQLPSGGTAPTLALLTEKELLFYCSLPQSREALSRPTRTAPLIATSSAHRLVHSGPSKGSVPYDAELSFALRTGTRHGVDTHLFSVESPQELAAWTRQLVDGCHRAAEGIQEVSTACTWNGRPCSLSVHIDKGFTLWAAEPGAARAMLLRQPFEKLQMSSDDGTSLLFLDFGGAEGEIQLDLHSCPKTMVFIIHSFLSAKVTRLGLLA
Briefly: [3H]-PI hydrolysis, HEK293 cells, agonist. Type of experiment: cell-based.

In experiment [4] the target is T1, α1D-AR + β1-syntrophin. Briefly: [3H]-prazosin competition, HEK293 membranes. It counts as binding.
Experiment [5] concerns the target T3, α1D-AR + α-syntrophin. Briefly: [3H]-prazosin competition, HEK293 membranes. It counts as binding.
Experiment [6] concerns the target T2, α1D-AR + β2-syntrophin. Briefly: [3H]-prazosin competition, HEK293 membranes. Type of experiment: binding.
Where [7] appears, read: 1 nM [3H]-prazosin, 30 min, 37 °C, value is -log10 of KI in M, single site.

One may read the EC50 as the concentration giving half of the maximal effect. `CNCC(O)c1ccc(O)c(O)c1` (racemic) [(+/−) Epinephrine]: the concentration for a half-maximal effect (EC50) in experiment [1] was 0.0138 µM; in experiment [2], 0.0355 µM; in experiment [3], 0.0158 µM.

Usually Ki stands for a measure of affinity in units of concentration, obtained from inhibition or displacement. For the compound `COc1ccccc1N1CCN(CCCNc2c(C)c(=O)n(C)c(=O)n2C)CC1` [5-MU], the values for the Ki in experiment [4], in experiment [5] and in experiment [6] were 0.0234 µM, 0.0275 µM and 0.0363 µM, respectively.

Consider `CNC[C@H](O)c1cccc(O)c1` [(−) Phenylephrine], for which the EC50 is 0.155 µM in experiment [1], 0.126 µM in experiment [2] and 0.0676 µM in experiment [3].

With `CCS(=O)(=O)Nc1cccc(C(=C2CCCCC2)c2cnc[nH]2)c1` [A-315456], in experiment [4] (setting [7]), the “+β1-syntrophin” value worked out at 7.27 ± 0.08 M. Further, the “+α-syntrophin” value in experiment [5] (setting [7]) stood at 7.25 ± 0.13 M. The “+β2-syntrophin” value in experiment [6] (setting [7]) was found to be 7.42 ± 0.21 M.
